Test results reported in ChEMBL document CHEMBL2073768, “Effects of xanthine derivatives on the influx and efflux of doxorubicin in P388 and DOX-resistant P388 leukemia cells” (Toxicol Lett, 2002).

Biological target: ATP-dependent translocase ABCB1 (P-glycoprotein) (Mus musculus, UniProt P21447)
Experiment: TP_TRANSPORTER: inhibition of DOX efflux (DOX: 18? uM, XT-141: 100 uM) in P388/DOX cells
Type: functional, cell-based
Details: probe DOX (doxorubicin), read-out: Activity

Chain of ATP-dependent translocase ABCB1 (P-glycoprotein) (P21447 whole entry): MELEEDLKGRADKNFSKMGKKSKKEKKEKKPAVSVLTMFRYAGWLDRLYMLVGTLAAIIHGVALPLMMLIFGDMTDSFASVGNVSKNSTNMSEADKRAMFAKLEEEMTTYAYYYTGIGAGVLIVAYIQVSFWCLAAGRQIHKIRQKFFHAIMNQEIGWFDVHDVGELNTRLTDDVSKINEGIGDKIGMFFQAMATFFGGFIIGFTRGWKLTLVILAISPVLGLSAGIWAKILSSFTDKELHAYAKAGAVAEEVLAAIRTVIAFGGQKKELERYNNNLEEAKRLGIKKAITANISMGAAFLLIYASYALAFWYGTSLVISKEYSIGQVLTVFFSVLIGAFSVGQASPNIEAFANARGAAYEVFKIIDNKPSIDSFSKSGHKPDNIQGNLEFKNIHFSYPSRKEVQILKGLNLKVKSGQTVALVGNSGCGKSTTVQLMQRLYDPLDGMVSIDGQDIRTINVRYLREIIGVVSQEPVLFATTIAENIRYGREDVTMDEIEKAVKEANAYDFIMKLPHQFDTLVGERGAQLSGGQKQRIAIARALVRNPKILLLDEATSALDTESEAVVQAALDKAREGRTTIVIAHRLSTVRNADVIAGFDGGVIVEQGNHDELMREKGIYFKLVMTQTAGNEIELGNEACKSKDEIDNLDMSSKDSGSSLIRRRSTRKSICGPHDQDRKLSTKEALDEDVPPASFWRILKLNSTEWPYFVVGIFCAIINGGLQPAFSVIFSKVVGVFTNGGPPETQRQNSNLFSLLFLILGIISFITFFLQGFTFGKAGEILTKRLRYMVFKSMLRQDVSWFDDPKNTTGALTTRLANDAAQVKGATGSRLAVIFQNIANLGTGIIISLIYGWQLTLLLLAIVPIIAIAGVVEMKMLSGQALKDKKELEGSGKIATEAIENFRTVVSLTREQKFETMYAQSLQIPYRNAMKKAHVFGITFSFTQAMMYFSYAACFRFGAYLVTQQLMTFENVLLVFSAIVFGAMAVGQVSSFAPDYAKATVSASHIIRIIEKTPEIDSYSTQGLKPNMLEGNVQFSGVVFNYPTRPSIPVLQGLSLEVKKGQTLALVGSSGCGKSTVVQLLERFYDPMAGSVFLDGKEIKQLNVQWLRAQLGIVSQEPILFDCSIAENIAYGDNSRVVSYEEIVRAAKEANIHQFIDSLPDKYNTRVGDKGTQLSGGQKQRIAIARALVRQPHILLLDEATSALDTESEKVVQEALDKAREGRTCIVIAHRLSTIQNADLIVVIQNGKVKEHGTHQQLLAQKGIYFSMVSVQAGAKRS

inhibition at 100 µM: 43%
SMILES: CCCn1c(=O)n(C)c(=O)c2c1ncn2CCCN(C)C
